This test relates to harmful organisms such as smut (Ustilago nuda), Fusaria and Septoria nodorum. The test is described as follows: combined use of low energy electrons with subsequent fungicidal treatment of the seeds. The conditions noted are these: low energy electrons followed by fungicidal treatment of the seeds; 15 g, 30 g/100 kg seeds.

As for `Cc1oc(C)c(C(=O)Nc2ccccc2)c1C` [Methfuroxam], the harmful organisms combated is reported as 95 to 100%.

(Values after patent US6745512B1 (priority 1990, dated 2004).)
